Like-named read-outs stand apart in the source and are kept apart here.
System: amphetamine-induced symptoms
Experiment: antagonism of amphetamine-induced symptoms in rats (blocking of amphetamine behavior of cage movement)
Format: in vivo
Settings: Rattus norvegicus, ip
Description: The tranquilizing agents of the present invention are characterized by relief of such schizophrenic manifestations in humans as hallucinations, hostility, suspiciousness, emotional and social withdrawal, anxiety, agitation and tension. Standard procedures of detecting and comparing tranquilizing activity of compounds in this series and for which there is an excellent correlation with human efficacy is the antagonism of amphetamine-induced symptoms in rats test as taught by A. Weissman, et al., J. Pharmacol. Exp. Ther., 151, 339 (1966) and by Quinton, et al., Nature, 200, 178 (1963).
The effects of the compounds of the present invention on prominent amphetamine-induced symptoms were studied in rats by a rating scale modeled after the one reported by Quinton and Halliwell; and Weissman. Groups of five rats were placed in a covered plastic cage measuring approximately 26 cm. × 42 cm. × 16 cm. After a brief period of acclimation in the cage, the rats in each group were treated intraperitoneally (i.p.) with the test compound. […] On the basis of dose-response data after amphetamine it was possible to determine the effective dose of the compound necessary to antagonize or block the characteristic amphetamine behavior of cage movement for fifty percent of the rats tested (ED50). The time of rating chosen coincides with the peak action of amphetamine which is 60-80 min. after treatment with this agent.
Employing the above-described procedure, the following compounds were tested for their ability to block the behavior effects to amphetamine, the results being reported as the ED50 in mg./kg. at the indicated times: […]

[1] = test compound i.p., d-amphetamine sulfate 5 mg./kg. i.p. 1 hr. later, rated one hour after amphetamine, read-out: ED50, 1 hr.
[2] = test compound i.p., d-amphetamine sulfate 5 mg./kg. i.p. 5 hrs. later, rated one hour after amphetamine, read-out: ED50, 5 hrs.

SMILES | ED50 [1] | ED50 [2] | ED50 (1 h, read-out: ED50, 1 hr.)
CN1Cc2c(n(-c3ccc(F)cc3)c3ccc(F)cc23)C1 [X = F, Z = F, R = CH3, 7-Fluoro-4-(p-fluorophenyl)-2-methyl-1,2,3,4-tetrahydropyrrolo[3,4-b]indole] | 3.2 to 5.6 mg/kg | > 10 mg/kg | 
CN(C)CCCN1c2ccccc2Sc2ccc(Cl)cc21 [chlorpromazine, reference compound] |  |  | > 10 mg/kg
OC(CCCN1Cc2c(n(-c3ccc(F)cc3)c3ccc(F)cc23)C1)c1ccc(F)cc1 (centres unmarked) | 1 to 3.2 mg/kg | 1 to 3.2 mg/kg | 

Source: patent US4006164A, “4-Aryl-1,2,3,4-tetrahydropyrrolo[3,4-b]indoles” (Pfizer Inc., priority 1975, dated 1977)
